The text below walks through data of patent US9765105B2, “Macrolide compound” (Pulike Biological Engineering, Inc., priority 2013, dated 2017).

SMILES strings stand for the structures.

Data set [1] relates to Staphylococcus aureus CVCC26003. As to the kind of experiment: in vitro susceptibility, MIC by mini broth dilution. Type of data set: cell-based. The conditions noted are these: strain CVCC26003. Put shortly: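 MICs were determined by mini broth dilution under NCCLS standards in CAMHB, using revived S. aureus CVCC26003 subcultured 20 h at 35° C. Compounds were two-fold serially diluted in DMSO across 11 wells, with duplicate rows. Bacterial suspension was diluted 1:200 in medium before inoculation.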

The subject of data set [2] is Streptococcus equines CVCC556. The data set is described as above. Format: cell-based. The conditions noted are these: strain CVCC556. Put shortly: (§1)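 Bacteria were revived from −20° C stocks and streaked twice on solid medium, each time grown 20 h at 35° C. Compounds were double-diluted in DMSO across 11 wells and tested in two parallel rows. The bacterial suspension was diluted 1:200 with liquid medium before MIC determination by mini broth dilution.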

The test system of data set [3] is Pasteurella multocida CVCC399. The description is as above. Format: cell-based. The settings on record: strain CVCC399. Put shortly: as §1
The test system of data set [4] is Actinobacillus pleuropneumoniae CVCC262. The data set is described as above. Format: cell-based. The settings on record: strain CVCC262. Put shortly: as §1
A further data set has as its system Haemophilus parasuis. The description is as above. Type of data set: cell-based. Put shortly: as §1
A short description of data set [5]: acute toxicity test, single gastric perfusion. Type of data set: in vivo, Balb/c mice. The settings on record: 2000 mg/kg once by gastric perfusion, 85 mg/ml suspension; deaths after 6 h. An excerpt: The marked parts of mice in the Syzx-24 group were respectively left hinder limbs (female), necks (female), right hinder limbs (male), and necks (male). The mice in the solvent control group were not marked.

Data set [6] is described as follows: acute oral toxicity test, LD50 by improved karber method. The settings on record: per os, gavaged once, in 0.2% sodium carboxymethylcellulose; observed 7 days.
The subject of data set [7] is Streptococcus pneumoniae CMCC 31203. Put plainly: in vivo antibacterial test, survival of infected mice. The settings on record: medicament control group; Tulathromycin 10 mg per kg after infection; observed until the seventh day. Details: species or system BALB/c mice.
The conditions of data set [8]: orally intoxicated mice; reported; cited from earlier work.

In the case of `CC[C@H]1OC(=O)[C@H](C)[C@@H](O[C@H]2C[C@@](C)(OC)[C@](O)(CN(C)C)[C@H](C)O2)[C@H](C)[C@@H](O[C@@H]2O[C@H](C)C[C@H](N(C)C)[C@H]2O)[C@](C)(O)C[C@@H](C)NC[C@H](C)[C@@H](O)[C@]1(C)O` [Syzx-24], the “MIC values, Staphylococcus aureus CVCC26003” value in data set [1] worked out at 0.5 ug/mi. The “MIC values, Streptococcus equines CVCC556” value in data set [2] is 0.25 ug/mi. Further, the “MIC values, Pasteurella multocida CVCC399” value in data set [3] worked out at 0.25 ug/mi. The “MIC values, Actinobacillus pleuropneumoniae CVCC262” value in data set [4] is recorded as 0.25 ug/mi. The “MIC values, Haemophilus parasuis” value against Haemophilus parasuis came to 0.5 ug/mi. For the same compound, in [5], the Death rate was 0% and the “Number of dead animals/total number of animals” value was 0/4.

Consider `CCCNC[C@]1(O)[C@H](C)O[C@@H](O[C@H]2[C@H](C)[C@@H](O[C@@H]3O[C@H](C)C[C@H](N(C)C)[C@H]3O)[C@](C)(O)C[C@@H](C)CN[C@H](C)[C@@H](O)[C@](C)(O)[C@@H](CC)OC(=O)[C@@H]2C)C[C@@]1(C)OC` [Tulathromycin, reference compound], for which the “MIC values, Staphylococcus aureus CVCC26003” value in data set [1] amounted to 0.25 ug/mi. The LD50 in data set [6] turned out to be 2379.2 mg/kg. Besides, in data set [7], the Animal survival rate was found to be 70% and the “Animal survival rate (surviving/total animals)” value is recorded as 7/10. Moreover, the minimum lethal dose entry in [8] is listed as “higher than 2000 mg/kg·d-1”. Besides, in [2], the “MIC values, Streptococcus equines CVCC556” value came out at 0.25 ug/mi. In data set [3], the “MIC values, Pasteurella multocida CVCC399” value was determined as 0.25 ug/mi. Also, the “MIC values, Actinobacillus pleuropneumoniae CVCC262” value in data set [4] was found to be 0.25 ug/mi. Also, in the data set with Haemophilus parasuis, the “MIC values, Haemophilus parasuis” value came to 0.25 ug/mi. In data set [5], the Death rate is recorded as 75%; the “Number of dead animals/total number of animals” value is 3/4 (2 female and 1 male).
